Assay results published in BindingDB's records for doi:10.3109/14756366.2010.491794 (Nanchang University School of Pharmaceutical Science, 2011).

Target: Cannabinoid receptor 1 (Cricetulus griseus, UniProt Q99NU1)
Test: CB1 Receptor Binding Assay (In Vitro)
Method: The target compounds were evaluated using a binding assay towards the CB1 receptor expressed on the membranes of Chinese hamster ovarian (CHO) cells. […] The potent synthetic cannabinoid agonist, [3H]-CP55940, was used as a radioligand (Figure 1). The CHO cells were incubated in 96-well microtiter plates. Various concentrations of the synthesised cannabinoid ligands were added and incubated for 10 min at 37°C. […] The cells were lysed and scintillation fluid was added. […] There were three parallels in the tests.

Sequence of Cannabinoid receptor 1 (Q99NU1 whole entry): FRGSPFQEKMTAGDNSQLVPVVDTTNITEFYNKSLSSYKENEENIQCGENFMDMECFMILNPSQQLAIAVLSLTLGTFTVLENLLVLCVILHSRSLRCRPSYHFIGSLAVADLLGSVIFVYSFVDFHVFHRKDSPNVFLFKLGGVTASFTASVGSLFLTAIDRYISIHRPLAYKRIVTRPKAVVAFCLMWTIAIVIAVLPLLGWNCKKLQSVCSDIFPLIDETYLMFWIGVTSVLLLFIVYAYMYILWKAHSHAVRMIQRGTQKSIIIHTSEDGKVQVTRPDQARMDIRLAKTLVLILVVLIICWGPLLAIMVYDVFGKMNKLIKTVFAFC

Cc1c(C(=O)NC2CCC(C)CC2)nn(-c2ccc(Cl)cc2Cl)c1-c1ccc(Cl)cc1 (centres undefined) [5-(4-chlorophenyl)-1-(2,4-dichlorophenyl)-4-methyl-N-(4-methylcyclohexyl)-1H-pyrazol-3-carboxamide (12d)]
IC50: 4.31 nM

COc1ccc2ccc(CCNC(=O)c3nn(-c4ccc(Cl)cc4Cl)c(-c4ccc(Cl)cc4)c3C)cc2c1 [5-(4-Chlorophenyl)-1-(2,4-dichlorophenyl)-4-methyl-N-[2-(7-methoxynaphthalen-2-yl)ethyl]-1H-pyrazol-3-carboxamide (12g)]
IC50: 398 nM

Cc1c(C(=O)NCCCCN2CCCCC2)nn(-c2ccc(Cl)cc2Cl)c1-c1ccc(Cl)cc1 [5-(4-Chlorophenyl)-1-(2,4-dichlorophenyl)-4-methyl-N-(4-(piperidin-1-yl)butyl)-1H-pyrazole-3-carboxamide (12f)]
IC50: > 1000 nM

Cc1c(CN(CC(=O)O)Cc2nn(-c3ccc(Cl)cc3Cl)c(-c3ccc(Cl)cc3)c2C)nn(-c2ccc(Cl)cc2Cl)c1-c1ccc(Cl)cc1 [[2-Bis-[[5-(4-chlorophenyl)-1-(2,4-dichlorophenyl)-4-methyl-1H-pyrazol-3-yl]methyl]amino] acetic acid (13c)]
IC50: 516 nM

Cc1c(C(=O)NCCCN2CCCC2)nn(-c2ccc(Cl)cc2Cl)c1-c1ccc(Cl)cc1 [5-(4-Chlorophenyl)-1-(2,4-dichlorophenyl)-4-methyl-N-(3-(pyrrolidin-1-yl)propyl)-1H-pyrazole-3-carboxamide (12e)]
IC50: 672 nM

Cc1c(C(=O)NN2CCCCCC2)nn(-c2ccc(C(F)(F)F)cc2)c1-c1ccc(Cl)cc1 [5-(4-Chlorophenyl)-4-methyl-1-[4-(trifluoromethyl)phenyl]-N-(azepan-1-yl)-1H-pyrazole-3-carboxamide (12l)]
IC50: 98.3 nM

CCN(CC)CCCNC(=O)c1nn(-c2ccc(Cl)cc2Cl)c(-c2ccc(Cl)cc2)c1C [5-(4-Chlorophenyl)-1-(2,4-dichlorophenyl)-4-methyl-N-[3-(N,N-diethylamino)propyl]-1H-pyrazol-3-carboxamide (12c)]
IC50: > 1000 nM

Cc1c(C(=O)NCCCN2CCOCC2)nn(-c2ccc(Cl)cc2Cl)c1-c1ccc(Cl)cc1 [5-(4-Chlorophenyl)-1-(2,4-dichlorophenyl)-4-methyl-N-[3-(4-morpholinyl)propyl]-1H-pyrazole-3-carboxamide (12b)]
IC50: 455 nM

Cc1c(C(=O)NN2CCCCCC2)nn(-c2ccccn2)c1-c1ccc(Cl)cc1 [5-(4-Chlorophenyl)-4-methyl-1-(pyridin-2-yl)-N-(azepan-1-yl)-1H-pyrazole-3-carboxamide (12i)]
IC50: 382 nM

Cc1c(C(=O)NC2CCC(C)CC2)nn(-c2ccc(C(F)(F)F)cc2)c1-c1ccc(Cl)cc1 (centres undefined) [5-(4-Chlorophenyl)-4-methyl-1-[4-(trifluoromethyl)phenyl]-N-(4-methylcyclohexyl)-1H-pyrazole-3-carboxamide (12m)]
IC50: 79 nM

Cc1c(C(=O)NN2CCCCC2)nn(-c2ccc(C(F)(F)F)cc2)c1-c1ccc(Cl)cc1 [5-(4-Chlorophenyl)-4-methyl-1-[4-(trifluoromethyl)phenyl]-N-(piperidin-1-yl)-1H-pyrazole-3-carboxamide (12k)]
IC50: 93.4 nM

Cc1c(C(=O)NN2CCN(C)CC2)nn(-c2ccc(Cl)cc2Cl)c1-c1ccc(Cl)cc1 [5-(4-Chlorophenyl)-1-(2,4-dichlorophenyl)-4-methyl-N-(4-methylpiperazin-1-yl)-1H-pyrazole-3-carboxamide (12a)]
IC50: 173 nM

Cc1c(C(=O)NN2CCCCC2)nn(-c2ccccn2)c1-c1ccc(Cl)cc1 [5-(4-Chlorophenyl)-4-methyl-1-(pyridin-2-yl)-N-(piperidin-1-yl)-1H-pyrazole-3-carboxamide (12h)]
IC50: 510 nM

Cc1c(C(=O)NC2CCC(C)CC2)nn(-c2ccccn2)c1-c1ccc(Cl)cc1 (centres undefined) [5-(4-Chlorophenyl)-4-methyl-1-(pyridin-2-yl)-N-(4-methylcyclohexyl)-1H-pyrazole-3-carboxamide (12j)]
IC50: 612 nM
